Experimental data taken from EP4786487A1, “PEPTIDE” (Peptidream Inc, priority 2023, dated 2025).
Where two headings read alike, the source gives them in different places. Starred links: 1 amine or outer side, 2 acyl side, 3 side chain; linkers in the order of their positions; H or OH if unused. Positions of bridges follow the written chain, without caps; N, C: chain ends. Non-standard residues stand in square brackets, D forms with d. Residues, ends and D or L forms follow the SMILES beside them. *: point of attachment. Phe(3-OCH2COOH) = N[C@@H](Cc1cccc(OCC(=O)O)c1)C(=O)O; Trp(6-OH) = N[C@@H](Cc1c[nH]c2cc(O)ccc12)C(=O)O; Phe(4-COOH) = N[C@@H](Cc1ccc(C(=O)O)cc1)C(=O)O; Piperazinyl(4-CH2COOH) = O=C(O)CN1CCN(*)CC1; Gly(decyl) = CCCCCCCCCC[C@H](N)C(=O)O; Gly(N(CH2)3COOH) = O=C(O)CCCNCC(=O)O; X1 = CCCCCCC[C@H](N[*:1])C(=O)[*:2]; NMeF = CN[C@@H](Cc1ccccc1)C(=O)O; NMeE = CN[C@@H](CCC(=O)O)C(=O)O; Cha = N[C@@H](CC1CCCCC1)C(=O)O; NMeA = CN[C@@H](C)C(=O)O; Bn = c1ccc(C*)cc1; Sar = CNCC(=O)O

Columns and labels:
[1] = Muscle strength, body weight and serum creatine kinase in B10 mdx mice; format: in vivo, C57BL/10-mdx/Jcl mice; details: 10 mg/kg subcutaneous
Description: (§1) In this Example, the effect of the peptide Myostatin_99_Variant_07 (SEQ ID NO: 3), synthesized according to Example 1, on improvement of muscle strength in DMD model mice was evaluated using B10 mdx model mice (NPL 17).
(§2) To five-week-old male C57BL/10-mdx/Jcl (CLEA Japan, Inc.) mice, the peptide or solvent control (Vehicle) PBS was subcutaneously administered as shown in Table 11 three times a week or every day for 5 weeks.
(§3) Using a smart-type grip strength meter for rats and mice (MK-380V; Muromachi Kikai Co., Ltd.), forelimb and hindlimb grip strength measurements and body weight measurements were performed on the day of completion of the acclimation period (grouping day), and on Days 7, 14, 21, 27, and 33. The measurements were conducted with individual identification numbers blinded so that the examiner was unaware of the test conditions of the mice. The grip strength was measured seven times consecutively, and the average of five points, excluding the two points: the highest and lowest values, was used as individual data. The body weight was weighed using an electronic balance.
(§4) Serum creatine kinase (CK) concentrations (mean ± SEM) on Day 35, when the animals were euthanized, were also examined.

Myostatin [2] = target: T1, Myostatin (Homo sapiens, UniProt O14793); test: Reporter gene assay for myostatin signaling in HepG2 cell line, Evaluation Procedure (1), myostatin inhibition; format: cell-based; details: read-out: IC50 (Luciferase) Myostatin HepG2
T1 construct: active myostatin (also called mature myostatin) is a homodimer consisting of two C-terminal growth factor domains; purchased R&D systems 788-G8/CF
T1 sequence (O14793 267-375): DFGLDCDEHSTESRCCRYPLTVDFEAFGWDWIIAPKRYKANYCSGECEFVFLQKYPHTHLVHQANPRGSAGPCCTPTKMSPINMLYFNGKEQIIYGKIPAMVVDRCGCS
Summary of the method: (§5)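 HepG2 cells transfected with pGL3(CAGA)12-luciferase reporter, serum-starved in 0.1% BSA medium, then stimulated with myostatin or GDF-11 plus 4-fold peptide dilutions (0.006–100 nmol/L for myostatin, 0.12–2000 nmol/L for GDF-11) for 20–24 h at 37 °C. Luminescence read with One-Glo; IC50 calculated.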

Myostatin [3] = test: as above; format: cell-based; details: GDF-11 IC50 versus Myostatin IC50
Summary of the method: as §5

[4] = Distribution of peptide in skeletal muscle (plasma and quadriceps concentrations); format: in vivo; details: mouse, sc, 10 mg/kg subcutaneously, male CD1 mice; for level at 24 h: 24 hr after administration; for level at 48 h: 48 hr after administration; for level at 72 h: 72 hr after administration
Description: The peptide Myostatin_99_Variant_07 (SEQ ID NO: 3), synthesized according to Example 1, was administered subcutaneously at 10 mg/kg to male 6-8-week-old CD1 mice. Plasma and quadriceps concentrations were measured at 24, 48, and 72 hours after administration. […]
Note that plasma was separated from blood by centrifugation; 25% homogenate of tissue was prepared and deproteinized with 5% formic acid-containing acetonitrile; and the drug concentrations were determined using an LC/MS/MS system (LCMS-8060, Shimadzu Corporation).

GDF-11 [5] = target: T2, GDF-11 (Homo sapiens, UniProt O95390); test: Reporter gene assay for myostatin signaling in HepG2 cell line, Evaluation Procedure (1), GDF-11 inhibition; format: cell-based; details: read-out: IC50 (Luciferase) GDF-11 HepG2
T2 construct: purchased R&D systems 1958-GD-G8/CF
T2 sequence (O95390 299-407): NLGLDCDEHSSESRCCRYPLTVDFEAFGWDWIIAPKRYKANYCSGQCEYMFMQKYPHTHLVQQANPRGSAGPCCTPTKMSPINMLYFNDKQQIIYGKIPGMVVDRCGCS
Summary of the method: as §5

B10 mdx model mice = test: Improvement of muscle strength and inhibition of muscle necrosis in B10 mdx mice; format: in vivo, C57BL/10-mdx/Jcl mice; details: 10 mg/kg subcutaneous
Description: as §1, §2, §3, §4

GDF-11 [6] = target: T2, GDF-11; test: HepG2 reporter gene assay, Evaluation Procedure (2): 2-concentrations assay, GDF-11 inhibition; format: cell-based; details: GDF-11 10 ng/mL
Summary of the method: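 HepG2 cells carrying the transfected pGL3(CAGA)12-luc reporter, a pGL3 vector with luciferase placed downstream of 12 CAGA repeats, were stimulated with GDF-11 at a final 10 ng/mL together with test peptide. Blank wells received no GDF-11 and no peptide. Plates were incubated 20 to 24 hours at 37°C with 5% CO2. Luminescence from One-Glo substrate was read to calculate percent inhibition.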

Myostatin [7] = target: T1, Myostatin; test: HepG2 reporter gene assay, Evaluation Procedure (2): 2-concentrations assay, myostatin inhibition; format: cell-based; details: Myostatin 10 ng/mL, HepG2; for inhibition at 0.03 µM: peptide 30nM, read-out: Myostatin Inhibition 30nM; for inhibition at 0.1 µM: peptide 100nM, read-out: Myostatin Inhibition 100nM
Summary of the method: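 HepG2 cells (HB-8065, ATCC) carrying the transfected pGL3(CAGA)12-luc reporter plasmid were treated with myostatin (788-G8/CF, R&D systems) at a final concentration of 10 ng/mL plus peptide and incubated at 37°C, 5% CO2 for 20 to 24 hours. Luminescence was read after adding PBS mixed 1:1 with One-Glo substrate, and inhibition rate was calculated.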

[8] = plasma, read-out: Plasma concentration
[9] = quadriceps muscle, quadriceps, read-out: Intramuscular concentration

For CC[C@H](C)[C@@H]1NC(=O)[C@H](Cc2ccccc2)N(C)C(=O)[C@H](Cc2ccc(O)cc2)NC(=O)[C@H](Cc2c[nH]c3ccccc23)NC(=O)[C@H](C)NC(=O)CN(CCCC(=O)O)C(=O)CSC[C@H](C(=O)O)NC(=O)[C@H](Cc2ccccc2)N(C)C(=O)[C@H](C)N(C)C(=O)[C@H](CC(C)C)NC(=O)[C@H](Cc2ccccc2)N(C)C(=O)[C@H](CCCNC(=N)N)NC(=O)[C@H](Cc2ccc(C(=O)O)cc2)NC(=O)[C@H](Cc2ccc(O)cc2)NC(=O)CN(C)C1=O [Myostatin_99_Variant_07] ({CH2CO}-[Gly(N(CH2)3COOH)]AWY[NMeF]I[Sar]Y[Phe(4-COOH)]R[NMeF]L[NMeA][NMeF][dC]-OH; thioether N-15), the “time-course change in grip strength” value ([1]; vs. PBS (Fig. 3)) was “continuous increase in grip strength was observed”, the “time-course change in body weight” value ([1]; vs. Vehicle (Fig. 4)) was “cause the body weight to continuously increase” and the IC50 (Myostatin [2]; Method A: Myostatin 10 ng/mL) was 26.2 nM. It also gave a Selectivity (Myostatin [3]; Method A) of 40, a level at 24 h [4, 8] of 232 ng/mL and a level at 48 h [4, 8] of 55 ng/mL. It also gave a level at 72 h [4, 8] of 40 ng/mL, a level at 24 h [4, 9] of 283 ng/mL and a level at 48 h [4, 9] of 190 ng/mL. For the same compound, the level at 72 h [4, 9] was 74 ng/mL, the IC50 (GDF-11 [5]; Method A: GDF-11 10 ng/mL) was 1050 nM and the “time-course change in grip strength” value (B10 mdx model mice; 3 times a week, vs. PBS Vehicle group, Fig. 3) was “continuous increase in grip strength”. For the same compound, the “time-course change in body weight” value (B10 mdx model mice; 3 times a week, vs. Vehicle group, Fig. 4) was “body weight to continuously increase” and the “Serum creatine kinase (CK) concentrations (mean ± SEM)” value (B10 mdx model mice; Day 35, Vehicle group 3,836 ± 754 IU/L) was 3,247 ± 558 IU/L.
Compound CCCCCCC[C@@H]1NC(=O)[C@H](Cc2ccccc2)N(C)C(=O)[C@H](CCCNC(=N)N)NC(=O)[C@H](Cc2ccc(C(=O)O)cc2)NC(=O)[C@H](Cc2cccc(OCC(=O)O)c2)NC(=O)CN(C)C(=O)[C@H]([C@@H](C)CC)NC(=O)[C@H](Cc2ccccc2)N(C)C(=O)[C@H](Cc2ccc(OCc3ccccc3)cc2)NC(=O)[C@H](Cc2c[nH]c3ccccc23)NC(=O)[C@H](C)NC(=O)[C@H](C)NC(=O)CSC[C@H](C(=O)N2CCN(CC(=O)O)CC2)NC(=O)[C@H](Cc2ccccc2)N(C)C(=O)[C@H](C)N(C)C1=O [Myostatin_99_v298] ({CH2CO}-AAWY(Bn)[NMeF]I[Sar][Phe(3-OCH2COOH)][Phe(4-COOH)]R[NMeF][X1][NMeA][NMeF][dC]-{Piperazinyl(4-CH2COOH)}; thioether N-15) has an inhibition at 0.03 µM (GDF-11 [6]; HepG2, peptide 30nM, read-out: GDF11 Inhibition 30nM) of 12%, an inhibition at 0.1 µM (GDF-11 [6]; HepG2, peptide 100nM, read-out: GDF11 Inhibition 100nM) of 55% and an IC50 (Myostatin [2]; Method B: Myostatin 1 ng/mL) of 0.11 nM. For the same compound, the Selectivity (Myostatin [3]; Method B) was 62, the IC50 (GDF-11 [5]; Method B: GDF-11 1 ng/mL) was 6.8 nM and the inhibition at 0.03 µM (Myostatin [7]) was 100%. The inhibition at 0.1 µM (Myostatin [7]) was 100%.
In the case of CCCCCCCCCC[C@@H]1NC(=O)[C@H](CC2CCCCC2)NC(=O)[C@H](CCCNC(=N)N)NC(=O)[C@H](Cc2ccc(C(=O)O)cc2)NC(=O)[C@H](Cc2cccc(OCC(=O)O)c2)NC(=O)CN(C)C(=O)[C@H]([C@@H](C)CC)NC(=O)[C@H](Cc2ccccc2)N(C)C(=O)[C@H](Cc2ccc(O)cc2)NC(=O)[C@H](Cc2c[nH]c3ccccc23)NC(=O)[C@H](C)NC(=O)[C@H](C)NC(=O)CSC[C@H](C(=O)N2CCN(CC(=O)O)CC2)NC(=O)[C@H](Cc2ccccc2)N(C)C(=O)[C@H](CCC(=O)O)N(C)C1=O [Myostatin_99_v261] ({CH2CO}-AAWY[NMeF]I[Sar][Phe(3-OCH2COOH)][Phe(4-COOH)]R[Cha][Gly(decyl)][NMeE][NMeF][dC]-{Piperazinyl(4-CH2COOH)}; thioether N-15), the IC50 (Myostatin [2]; Method B: Myostatin 1 ng/mL) is reported as 0.16 nM, the Selectivity (Myostatin [3]; Method B) is reported as 181 and the IC50 (GDF-11 [5]; Method B: GDF-11 1 ng/mL) is reported as 29 nM. The inhibition at 0.03 µM (Myostatin [7]) was 26% and the inhibition at 0.1 µM (Myostatin [7]) was 72%.
Work on CCCCCCCCCC[C@@H]1NC(=O)[C@H](Cc2ccccc2)N(C)C(=O)[C@H](CCCNC(=N)N)NC(=O)[C@H](Cc2ccc(C(=O)O)cc2)NC(=O)[C@H](Cc2cccc(OCC(=O)O)c2)NC(=O)CN(C)C(=O)[C@H]([C@@H](C)CC)NC(=O)[C@H](Cc2ccccc2)N(C)C(=O)[C@H](Cc2ccc(O)cc2)NC(=O)[C@H](Cc2c[nH]c3ccccc23)NC(=O)[C@H](C)NC(=O)[C@H](C)NC(=O)CSC[C@H](C(=O)N2CCN(CC(=O)O)CC2)NC(=O)[C@H](Cc2ccccc2)N(C)C(=O)[C@H](CCC(=O)O)N(C)C1=O [Myostatin_99_v265] ({CH2CO}-AAWY[NMeF]I[Sar][Phe(3-OCH2COOH)][Phe(4-COOH)]R[NMeF][Gly(decyl)][NMeE][NMeF][dC]-{Piperazinyl(4-CH2COOH)}; thioether N-15) yielded an IC50 (Myostatin [2]; Method B: Myostatin 1 ng/mL) of 0.1 nM, a Selectivity (Myostatin [3]; Method B) of 55 and an IC50 (GDF-11 [5]; Method B: GDF-11 1 ng/mL) of 5.3 nM. It also gave an inhibition at 0.03 µM (Myostatin [7]) of 91% and an inhibition at 0.1 µM (Myostatin [7]) of 98%.
Compound CCCCCCCCCC[C@@H]1NC(=O)[C@H](Cc2ccccc2)N(C)C(=O)[C@H](CCCNC(=N)N)NC(=O)[C@H](Cc2ccc(C(=O)O)cc2)NC(=O)[C@H](Cc2cccc(OCC(=O)O)c2)NC(=O)[C@H]2CCCN2C(=O)[C@H]([C@@H](C)CC)NC(=O)[C@H](Cc2ccccc2)N(C)C(=O)[C@H](Cc2ccc(O)cc2)NC(=O)[C@H](Cc2c[nH]c3cc(O)ccc23)NC(=O)[C@H](C)NC(=O)[C@H](C)NC(=O)CSC[C@H](C(=O)N2CCN(CC(=O)O)CC2)NC(=O)[C@H](Cc2ccccc2)N(C)C(=O)[C@H](CCC(=O)O)N(C)C1=O [Myostatin_99_v384] ({CH2CO}-AA[Trp(6-OH)]Y[NMeF]I[dP][Phe(3-OCH2COOH)][Phe(4-COOH)]R[NMeF][Gly(decyl)][NMeE][NMeF][dC]-{Piperazinyl(4-CH2COOH)}; thioether N-15) has an IC50 (Myostatin [2]; Method D: Myostatin 1.5 ng/mL) of 0.04 nM, a Selectivity (Myostatin [3]; Method D) of 805.658 and an IC50 (GDF-11 [5]; Method D: GDF-11 1.5 ng/mL) of 32.8 nM.
